The test system of one data set is aspirin-induced ulcer. The experiment in a line: Antiulcer activity against aspirin-induced ulcer model. The class given is in vivo, Wistar strain male rats. To be noted: 100 mg/kg oral, 30 min before aspirin 200 mg/kg oral; for Ulcer index: stomach excised 7 hours after aspirin, rats fasted 24 hours; for Inhibition rate: versus control group. The protocol:
Antiulcer activity against aspirin-induced ulcer model
A suspension of each test compound in 5% gum arabic aqueous solution was orally given to Wistar strain male rats (at the age of 7 to 8 weeks, weighing 180 to 227 g; 7-8 rats in the group administered with the test compound; 14-16 rats in the control group) fasted for 24 hours at a dose of 100 mg of the test compound/5 ml/kg. Thirty minutes after administration, aspirin was further orally administered at a dose of 200 mg/kg. Seven hours after administration of aspirin, stomach was excised under ethereal anesthesia and spotted and linear erosion and a long diameter of ulcer were microscopically measured to determine an ulcer index and an inhibition rate.
(§1) In the control group, 5% gum arabic aqueous solution was orally administered at a dose of 5 ml/kg.

Data set [1] has as its system water-immersion stress ulcer. Put plainly: Antiulcer activity against water-immersion stress ulcer model. The format is in vivo, Wistar strain male rats. The following applies: 100 mg/kg oral; for Ulcer index: 30 min before water immersion at 22 ± 1°C, stress load for 6 hours; for Inhibition rate: 30 min before water immersion stress for 6 hours, versus control group. As for the experimental part: Antiulcer activity against water-immersion stress ulcer model
A suspension of each test compound in 5% gum arabic aqueous solution was orally given to Wistar strain male rats (at the age of 7 to 8 weeks, weighing 191 to 238 g; 7-8 rats in the group administered with the test compound; 14-16 rats in the control group) fasted for 24 hours at a dose of 100 mg of the test compound/5 ml/kg. Thirty minutes after administration, the animal was immersed up to the xiphisternum in water bath at 22 ± 1°C using a stress cage made by Tokyo University, Faculty of Pharmacology to apply a stress load for 6 hours. After applying the stress load, the rats had the cervical vertebra dislocated to death. Then, the stomach was excised and, spotted and linear erosion and a long diameter of ulcer were microscopically measured to determine an ulcer index and an inhibition rate.
as §1

The test system of a further data set is gastric juice secretion. The experiment in a line: Gastric juice secretion inhibition activity (pyloric ligature). The class given is in vivo, Wistar strain male rats. The following applies: 100 mg/kg oral; for Gastric juice (pH) / Free HCℓ / Pepsin output / Total acidity: four hours after; for Free HCℓ: Töpfer reagent; for Pepsin output: casein as substrate; for Total acidity: phenolphthalein reagent; for Gastric juice: gastric juice collected four hours after. As for the experimental part: Gastric juice secretion inhibition activity
A suspension of each test compound in 5% gum arabic aqueous solution was orally given to Wistar strain male rats (at the age of 7 to 8 weeks, weighing 192 to 241 g; 7-9 rats in the group administered with the test compound; 15 rats in the control group) fasted for 24 hours at a dose of 100 mg of the test compound/5 ml/kg. Thirty minutes after administration (the compounds of Examples 3 and 4) or 60 minutes after administration (the compounds of Examples 1, 2, 5, 6 and 7), pyloric ligature was made under ethereal anesthesia. Four hours after, the stomach was excised under ethereal anesthesia to collect gastric juice. The collected gastric juice was centrifuged (2500 rpm) at 4°C for 10 minutes. After the supernatant was collected, an amount of the gastric juice and its pH were measured using a pH meter. Furthermore, an amount of free hydrochloric acid and the total acidity were measured with Töpfer reagent and phenolphthalein reagent, respectively. Using a part of the gastric juice, pepsin output in the gastric juice was measured using casein as substrate in a manner similar to the method of Anson et al.
as §1

Data set [2] has as its system SLC-ICR or SLC-ddy strain male mice. The experiment in a line: Acute toxicity. The format is in vivo. The following applies: oral, once, observed for 7 days. The protocol:
A suspension of each test compound in 5% gum arabic aqueous solution was orally given to SLC-ICR or SLC-ddy strain male mice (at the age of 6 to 7 weeks, weighing 26.6 to 33.6 g; 3-8 mice in one group) forcedly once at a dose of 500 mg and 1,000mg of the test compound/5mℓ/kg. For 7 days after the administration, the mice were observed whether they were dead or alive.

In the next data set the test system is ethanol-induced ulcer. Put plainly: Antiulcer activity against ethanol-induced ulcer model. The format is in vivo, Wistar strain male rats. The following applies: 100 mg/kg oral; for Ulcer index: 30 min before absolute ethanol 5 ml/kg oral, 1 hour after ethanol; for Inhibition rate: versus control group. As for the experimental part:
Antiulcer activity against ethanol-induced ulcer model
A suspension of each test compound in 5% gum arabic aqueous solution was orally given to Wistar strain male rats (at the age of 7 to 8 weeks, weighing 180 to 250 g; 5-9 rats in the group administered with the test compound; 4-9 rats in the control group) fasted for 24 hours at a dose of 100 mg of the test compound/5 ml/kg. Thirty minutes after administration, absolute ethanol was further orally administered at a dose of 5 mℓ/kg. One hour after administration of absolute ethanol, the stomach was excised under ethereal anesthesia and the area of an ulcerated portion (mm²) (using microscope) or the proportion (%) thereof to all area of gastric wall (by computer image analysis) were measured to determine an ulcer index and an inhibition rate.
as §1

Where [3] appears, read: pyloric ligature 60 minutes after administration.
Setting [4] is: pyloric ligature 30 minutes after administration.
[5] abbreviates: proportion of ulcerated area to all area of gastric wall (computer image analysis).

Each structure is given as a SMILES string.

In the data set with aspirin-induced ulcer, `Cc1nc2scc(C)n2c1CO` [Ex. 1, 3,6-dimethyl-5-hydroxymethylimidazo[2,1-b]thiazole] returned a Ulcer index of 38.6 ± 7.9 mm and an Inhibition rate of 45.6%. In data set [1], this molecule came in with a Ulcer index of 2.6 ± 0.9 mm and an Inhibition rate of 89.0%. For the same molecule, in the data set with gastric juice secretion (setting [3]), the “Gastric juice (pH)” value is reported as 2.02 ± 0.31 pH, the “Free HCℓ” value worked out at 33.9 ± 14.9 mcEq/100g, the Pepsin output was 12.0 ± 1.6 mg of tyrosine/100g and the Total acidity is listed as 70.6 ± 17.4 mcEq/100g. Further, in the data set on gastric juice secretion (setting [3]), the Gastric juice was 1.12 ± 0.18 mℓ/100g. The “Mortality rate (No. of death/No. of treated)” value in data set [2] (500 mg/kg) is given as 0/5. The “Mortality rate (No. of death/No. of treated)” value in data set [2] (1000 mg/kg) is recorded as 1/5.
In the data set with aspirin-induced ulcer, `CCCCc1sc2nc(C)c(CO)n2c1C` [Ex. 2, 2-butyl-3,6-dimethyl-5-hydroxymethylimidazo[2,1-b]thiazole] showed a Ulcer index of 52.7 ± 7.8 mm and an Inhibition rate of 25.7%. Moreover, in data set [1], the Ulcer index is on record as 13.3 ± 3.9 mm and the Inhibition rate is on record as 43.9%. Also, in the data set with gastric juice secretion (setting [3]), the “Gastric juice (pH)” value is 1.29 ± 0.08 pH, the “Free HCℓ” value is 111.0 ± 36.3 mcEq/100g, the Pepsin output was 15.9 ± 2.1 mg of tyrosine/100g and the Total acidity is listed as 147.2 ± 37.4 mcEq/100g. In the data set on gastric juice secretion (setting [3]), this molecule displayed a Gastric juice of 1.63 ± 0.28 mℓ/100g. Also, the “Mortality rate (No. of death/No. of treated)” value in data set [2] (500 mg/kg) is 0/5. In addition, the “Mortality rate (No. of death/No. of treated)” value in data set [2] (1000 mg/kg) is 0/5.
Turning to `Cc1nc2sccn2c1C(O)c1ccccc1` (centres unmarked) [Ex. 3, 5-(hydroxy-phenyl)-methyl-6-methyl-imidazo[2,1-b]thiazole], in the data set with aspirin-induced ulcer, the Ulcer index was 31.7 ± 5.9 mm and the Inhibition rate worked out at 44.8%. Moreover, in data set [1], the Ulcer index amounted to 3.6 ± 2.0 mm and the Inhibition rate worked out at 83.3%. In the data set with gastric juice secretion (setting [4]), the “Gastric juice (pH)” value worked out at 1.66 ± 0.09 pH, the “Free HCℓ” value is recorded as 35.1 ± 5.0 mEq/l, the Pepsin output was found to be 157.7 ± 17.6 units/hr and the Total acidity amounted to 66.6 ± 4.7 mEq/l. For the same molecule, the Gastric juice in the data set on gastric juice secretion (setting [4]) is 6.4 ± 0.7 mL. Further, the “Mortality rate (No. of death/No. of treated)” value in data set [2] (500 mg/kg) is listed as 2/6. For the same molecule, the “Mortality rate (No. of death/No. of treated)” value in data set [2] (1000 mg/kg) is recorded as 3/3.
In the data set with aspirin-induced ulcer, `Cc1nc2sccn2c1C(C)O` (centres unmarked) [Ex. 5, 5-(1-hydroxyethyl)-6-methylimidazo[2,1-b]-thiazole] returned a Ulcer index of 29.6 ± 6.8 mm and an Inhibition rate of 58.3%. Also, in data set [1], the Ulcer index was determined as 19.5 ± 5.8 mm and the Inhibition rate is 17.7%. Also, in the data set on gastric juice secretion (setting [3]), the “Gastric juice (pH)” value was 1.48 ± 0.11 pH, the “Free HCℓ” value was found to be 68.4 ± 19.6 mcEq/100g, the Pepsin output is recorded as 16.6 ± 2.2 mg of tyrosine/100g and the Total acidity is reported as 117.0 ± 20.8 mcEq/100g. In the data set on gastric juice secretion (setting [3]), this molecule returned a Gastric juice of 1.41 ± 0.15 mℓ/100g. For the same molecule, the “Mortality rate (No. of death/No. of treated)” value in data set [2] (500 mg/kg) is 2/5. The “Mortality rate (No. of death/No. of treated)” value in data set [2] (1000 mg/kg) is given as 3/5.
In the data set with aspirin-induced ulcer, `CCCCc1sc2nc(C)c(C(O)CCC)n2c1C` (centres unmarked) [Ex. 6, 2-butyl-3,6-dimethyl-5-(1-hydroxybutyl)-imidazo[2,1-b]thiazole] showed a Ulcer index of 37.5 ± 7.4 mm and an Inhibition rate of 47.1%. Moreover, in data set [1], the Ulcer index was found to be 18.8 ± 4.7 mm and the Inhibition rate was determined as 20.7%. Also, in the data set with gastric juice secretion (setting [3]), the “Gastric juice (pH)” value amounted to 1.36 ± 0.17 pH, the “Free HCℓ” value worked out at 132.7 ± 33.8 mcEq/100g, the Pepsin output is listed as 21.6 ± 2.7 mg of tyrosine/100g and the Total acidity came to 172.6 ± 36.5 mcEq/100g. Further, the Gastric juice in the data set on gastric juice secretion (setting [3]) stood at 2.00 ± 0.27 mℓ/100g. Further, in data set [2] (500 mg/kg), the “Mortality rate (No. of death/No. of treated)” value is 0/5. For the same molecule, in data set [2] (1000 mg/kg), the “Mortality rate (No. of death/No. of treated)” value is listed as 0/5.
In the data set on aspirin-induced ulcer, `CCCCc1sc2nc(C)c(C(O)c3ccccc3)n2c1C` (centres unmarked) [Ex. 7, 2-butyl-3,6-dimethyl-5-(hydroxy-phenyl)-methylimidazo[2,1-b]-thiazole] came in with a Ulcer index of 65.1 ± 8.5 mm and an Inhibition rate of 8.2%. In data set [1], this molecule had a Ulcer index of 25.5 ± 5.5 mm. For the same molecule, in the data set on gastric juice secretion (setting [3]), the “Gastric juice (pH)” value turned out to be 1.13 ± 0.03 pH, the “Free HCℓ” value turned out to be 220.6 ± 32.5 mcEq/100g, the Pepsin output is reported as 27.2 ± 2.3 mg of tyrosine/100g and the Total acidity was found to be 260.5 ± 32.9 mcEq/100g. This molecule showed a Gastric juice in the data set on gastric juice secretion (setting [3]) of 2.91 ± 0.29 mℓ/100g. The “Mortality rate (No. of death/No. of treated)” value in data set [2] (500 mg/kg) is given as 0/5. Also, in data set [2] (1000 mg/kg), the “Mortality rate (No. of death/No. of treated)” value is reported as 0/5.
Consider `Cc1nc2scc(C)n2c1C(O)c1ccccc1` (centres unmarked) [Ex. 8, 3,6-dimethyl-5-(hydroxy-phenyl)-methylimidazo[2,1-b]-thiazole], for which the Ulcer index in data set [1] is reported as 2.8 ± 0.5 mm; with ethanol-induced ulcer (area of ulcerated portion (microscope)), 15.3 ± 8.5^** mm^2. For the same molecule, the Inhibition rate in data set [1] came out at 82.0%; in the data set with ethanol-induced ulcer (from ulcer index in mm^2) it was 82.2%.
Regarding `Cc1ccc(C(O)c2c(C)nc3sccn23)cc1` (centres unmarked) [Ex. 9, 5-{hydroxy-(4-methylphenyl)}methyl-6-methylimidazo[2,1-b]thiazole], in the data set with ethanol-induced ulcer (setting [5]), the Ulcer index is 6.8 ± 1.5 %. In the data set on ethanol-induced ulcer (from ulcer index in %), this molecule showed an Inhibition rate of 59.8%.
`COc1ccc(C(O)c2c(C)nc3sccn23)cc1OC` (centres unmarked) [Ex. 10, 5-{hydroxy-(3,4-dimethoxyphenyl)}-methyl-6-methyl-imidazo[2,1-b]thiazole]: the Ulcer index in the data set on ethanol-induced ulcer (setting [5]) is 2.7 ± 0.9 %. This molecule displayed an Inhibition rate in the data set with ethanol-induced ulcer (from ulcer index in %) of 84.0%.
Turning to `Cc1nc2sccn2c1C(O)c1ccc(F)cc1` (centres unmarked) [Ex. 11, 5-{hydroxy-(4-fluorophenyl)}methyl-6-methylimidazo[2,1-b]thiazole], in the data set with ethanol-induced ulcer (setting [5]), the Ulcer index turned out to be 1.2 ± 0.5 %. The Inhibition rate in the data set on ethanol-induced ulcer (from ulcer index in %) turned out to be 92.9%.
`Cc1nc2scc(C)n2c1C(O)c1ccc(F)cc1` (centres unmarked) [Ex. 12, 3,6-dimethyl-5-{hydroxy-(4-fluorophenyl)}-methylimidazo[2,1-b]-thiazole] gave a Ulcer index in the data set on ethanol-induced ulcer (setting [5]) of 6.3 ± 1.3 %. The molecule also gave an Inhibition rate with ethanol-induced ulcer (from ulcer index in %) of 62.7%.
